Experiments:
[1] = system: ACE2; experiment: serum ACE2 by ELISA in SHRs after 14-day oral administration; format: in vivo, rat; conditions: oral 14 days
From the text: All three MDAs (BAC, BMC, and BHC) were purchased from Nature-Standard Co., Ltd. (Shanghai, China) and their purities were all over 98%. The anti-hypertensive effects of MDAs were studied in both acute and chronic experiments. The 16-week-old SHRs were used in animal experiments, and each group had six rats. In the acute experiment, drug administration was via i.v. injection. For i.v. injection, the animals were randomly assigned into four groups: vehicle (0.1% DMSO–0.9% salt solution, n = 6), low-dose group (0.6 mg kg^−1 body weight, n = 6), medium-dose group (2 mg kg^−1 body weight, n = 6), and high-dose group (6 mg kg^−1 body weight, n = 6). The drug was administered using a venous catheter. […] Blood pressure was recorded in real time.
Blood samples were collected from the left femoral artery of rats at the end point, followed by centrifugation at 1,000 × g for 15 min at 4°C. […] The concentrations of circulating ACE, ACE2, Ang I, Ang II, Ang (1–7), TNF-α, and IL-6 in serum were measured using the ELISA kits [ACE, cat#xy-R2401c, X-Y Biotechnology, Shanghai, China; ACE2, cat#xy-ACE2-Ra, X-Y Biotechnology; Ang I, cat#xy-E12541, X-Y Biotechnology; Ang II, cat#xy-R1430c, X-Y Biotechnology; Ang (1–7), cat#xy-Ang1-7-Ra, X-Y Biotechnology; TNF-α, cat#GM1149, Servicebio, Shanghai, China; IL-6, cat#GM1154, Servicebio] according to the manufacturer’s instructions. […]

[2] = system: thoracic aorta; experiment: vascular function: Ang I pre-constricted isolated thoracic aorta; conditions: isolated aorta of SD rat, Ang I 10^–2 μM
Protocol: Endothelium-dependent vasorelaxation using aorta was evaluated as previously described ([Liao et al., 2019]). Briefly, after euthanizing the SD rat with sodium pentobarbital (100 mg kg^−1, i.p.) administration in combination with isoflurane inhalation, thoracic aorta (diameter: 150–250 μm, length: 2 mm) was mounted on two tungsten wires and attached to a tension sensor system (ADInstruments). After balancing for 2 h in Krebs’ solution at 37°C, arteries were exposed to 10 µM of phenylephrine (PE, Sigma-Aldrich, St. Louis, MO, United States) twice, followed by a single dose of acetylcholine (Ach, 3 μm, Sigma-Aldrich, St. Louis, MO, United States) to evaluate the integrity of the vessel. Afterward, the vessel was pre-constricted to maximum using AngI (Sigma-Aldrich) at 10^–2 μM and then treated with a series concentration of BAC or A779 (Sigma-Aldrich) or captopril at 10^–6 to 10^–1 μM. Lastly, a cumulative concentration response curve to BAC with A779 (at 10^–2 μM) was performed to assess the endothelium-dependent vasorelaxation.

[3] = target: T1, rhACE2 (Homo sapiens, UniProt Q9BYF1); experiment: SPR assay with rhACE2; format: binding; conditions: rhACE2 on chip, 5% DMSO–1.05× PBS
T1 construct: purchased Proteintech
T1 sequence (Q9BYF1 18-805): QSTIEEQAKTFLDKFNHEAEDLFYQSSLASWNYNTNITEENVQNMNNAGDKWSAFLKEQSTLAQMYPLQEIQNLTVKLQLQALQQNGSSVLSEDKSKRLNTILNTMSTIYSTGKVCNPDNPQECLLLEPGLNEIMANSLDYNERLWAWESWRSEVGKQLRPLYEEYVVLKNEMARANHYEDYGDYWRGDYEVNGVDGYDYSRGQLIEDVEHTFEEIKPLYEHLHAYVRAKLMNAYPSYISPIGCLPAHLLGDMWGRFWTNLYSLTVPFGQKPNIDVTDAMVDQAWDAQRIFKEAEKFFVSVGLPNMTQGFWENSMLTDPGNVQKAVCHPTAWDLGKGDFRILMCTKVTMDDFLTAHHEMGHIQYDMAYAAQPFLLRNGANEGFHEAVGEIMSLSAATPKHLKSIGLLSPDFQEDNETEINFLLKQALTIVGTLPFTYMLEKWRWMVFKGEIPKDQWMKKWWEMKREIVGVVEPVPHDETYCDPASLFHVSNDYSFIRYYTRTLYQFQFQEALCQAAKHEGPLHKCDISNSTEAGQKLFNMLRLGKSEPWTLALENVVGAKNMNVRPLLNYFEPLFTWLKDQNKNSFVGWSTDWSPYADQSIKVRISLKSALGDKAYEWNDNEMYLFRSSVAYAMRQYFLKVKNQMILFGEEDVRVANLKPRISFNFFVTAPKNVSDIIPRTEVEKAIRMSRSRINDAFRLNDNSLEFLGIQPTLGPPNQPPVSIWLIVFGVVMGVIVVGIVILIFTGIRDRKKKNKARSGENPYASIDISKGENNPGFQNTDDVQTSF
Protocol: To screen the potential targets of the MDAs in hypertension, a CVDPlatform (www.cbligand.org/CVD) was used as previously reported ([Zhang et al., 2016a]). The results of database screening were verified by virtual docking with Discovery Studio 3.5 (BIOVIA, San Diego, CA, United States) and then validated in the SPR assay. In the SPR assay, a solution of protein standards was prepared, and the concentration of recombinant human ACE (rhACE) protein and rhACE2 (Proteintech, Rosemont, IL, United States) solution was set to 500 μg ml^−1. […] Finally, the level of binding between the proteins and each molecule was determined based on the K d value.

[4] = system: spontaneously hypertension rats (SHRs); experiment: acute experiment: real-time blood pressure after i.v. injection in SHRs; format: in vivo, rat
Protocol: The SHRs were surgically implanted with a catheter via the left femoral artery, vein, and stomach after anesthetizing with 2% pentobarbital sodium (40 mg kg^−1 i.p.,). A pressure sensor was inserted into the terminal of the arterial catheter and connected to a PowerLab system (ADInstruments, New South Wales, Australia) for real-time blood pressure monitoring.
All three MDAs (BAC, BMC, and BHC) were purchased from Nature-Standard Co., Ltd. (Shanghai, China) and their purities were all over 98%. The anti-hypertensive effects of MDAs were studied in both acute and chronic experiments. The 16-week-old SHRs were used in animal experiments, and each group had six rats. In the acute experiment, drug administration was via i.v. injection. For i.v. injection, the animals were randomly assigned into four groups: vehicle (0.1% DMSO–0.9% salt solution, n = 6), low-dose group (0.6 mg kg^−1 body weight, n = 6), medium-dose group (2 mg kg^−1 body weight, n = 6), and high-dose group (6 mg kg^−1 body weight, n = 6). The drug was administered using a venous catheter. In chronic experiments, the animals were randomly assigned into five groups: vehicle (5% Tween 80–0.9% salt solution, n = 6), captopril group (5 mg kg^−1 body weight, n = 6), low-dose group (3 mg kg^−1 body weight, n = 6), medium-dose group (10 mg kg^−1 body weight, n = 6), and high-dose group (30 mg kg^−1 body weight, n = 6). Oral administration with drug or 5% Tween 80–0.9% salt solution was carried out once a day, and continued for 14 days. The drugs were dissolved in 0.1% DMSO–0.9% salt solution for intravenous injection and in 5% Tween 80–0.9% salt solution for oral administration. Blood pressure was recorded in real time.
Real-time blood pressure level was monitored after drug treatment in the acute and chronic experiments. All animals were surgically implanted with a catheter in the left femoral artery. After connection to the monitor, all animals were placed at room temperature of 25°C for 0.5–1 h and the average blood pressure value was calculated based on a real-time blood pressure curve (10 s of every 30 s).

## CCN1CC2(COC)C(O)CC(OC)C34C5CC6(O)C(OC)C(O)C(O)(C5C6OC(=O)c5ccccc5)C(C(OC)C23)C14 (stereo not shown) [BAC, Benzoylaconitine]
[1]
  level of ACE2 in blood: did not change
[2]; 10^–6 to 10^–1 μM
  Ang I-induced vascular constriction: attenuate
[2]; with A779
  attenuation of Ang I-induced vascular constriction in presence of Mas inhibitor A779: abolished
[3]
  Kd: 3.12 µM
[4]; acute experiment, i.v. injection 0.6–6 mg kg^−1
  anti-hypertensive effect (in words): observable anti-hypertensive effects
[4]; i.v. injection, 0.6 mg kg^−1
  duration of anti-hypertensive effect: at least 30 min
[4]; i.v. injection, lowest dose 0.6 mg kg^−1, 1–5 min
  lowering of SBP, DBP, and MAP: more than 20 mmHg
